Laboratory results: the supplement of paper PMC10307832

What was measured:
Experiment in all cases: relative viability (nuclei count vs DMSO), 5 days (fraction); higher = more cells survive
Dactolisib + Navitoclax = compound: Cn1c(=O)n(-c2ccc(C(C)(C)C#N)cc2)c2c3cc(-c4cnc5ccccc5c4)ccc3ncc21 [Dactolisib] + CC1(C)CCC(c2ccc(Cl)cc2)=C(CN2CCN(c3ccc(C(=O)NS(=O)(=O)c4ccc(N[C@H](CCN5CCOCC5)CSc5ccccc5)c(S(=O)(=O)C(F)(F)F)c4)cc3)CC2)C1 [Navitoclax] (partner 0.5 µM)
In short: (§1)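 Lung cancer cell lines, seeded in 1536-well plates, were treated the following day by pin tool with a single drug or with five library-drug doses (not always all listed) in √10 steps on top of a fixed anchor-drug dose. Cells were fixed and nuclei stained in one step after 5 days, and nuclei were counted. Relative viability is the nuclei count for treated wells divided by that for vehicle wells, reported as medians of duplicate plates.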

Dactolisib = compound: Cn1c(=O)n(-c2ccc(C(C)(C)C#N)cc2)c2c3cc(-c4cnc5ccccc5c4)ccc3ncc21 [Dactolisib]
In short: (§2)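 Lung cancer cell lines in 1536-well plates were kept overnight at 37 °C, then pinned with five library-drug doses (not always all listed) spaced by √10 on vehicle-anchored plates. After 5 days without medium change, cells were fixed, permeabilised and Hoechst-stained in one step, imaged at 4×, and nuclei were counted with MetaXpress. Viability is treated-well nuclei divided by vehicle-well nuclei, taken as the median over plates. Plates passed only with control CV below 25% and at least one doubling.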

AZ505 = compound: C1CCC(CC1)N(CCNCCC2=C3C(=C(C=C2)O)NC(=O)CO3)C(=O)CCNCCC4=CC(=C(C=C4)Cl)Cl [AZ505]
In short: as §2

AZ505 + Trametinib = compound: C1CCC(CC1)N(CCNCCC2=C3C(=C(C=C2)O)NC(=O)CO3)C(=O)CCNCCC4=CC(=C(C=C4)Cl)Cl [AZ505] + CC(=O)Nc1cccc(-n2c(=O)n(C3CC3)c(=O)c3c(Nc4ccc(I)cc4F)n(C)c(=O)c(C)c32)c1 [Trametinib] (partner 0.02 µM)
In short: as §1

Cell Line	relative viability (Dactolisib + Navitoclax; first compound 0.002 µM)	relative viability (Dactolisib + Navitoclax; first compound 0.006325 µM)	relative viability (Dactolisib + Navitoclax; first compound 0.02 µM)	relative viability (Dactolisib + Navitoclax; first compound 0.06325 µM)	relative viability (Dactolisib + Navitoclax; first compound 0.2 µM)	relative viability (Dactolisib; 0.002 µM)	relative viability (Dactolisib; 0.006325 µM)	relative viability (Dactolisib; 0.02 µM)	relative viability (Dactolisib; 0.06325 µM)	relative viability (Dactolisib; 0.2 µM)	relative viability (AZ505; 0.08 µM)	relative viability (AZ505; 0.253 µM)	relative viability (AZ505; 0.8 µM)	relative viability (AZ505; 2.53 µM)	relative viability (AZ505; 8 µM)	relative viability (AZ505 + Trametinib; first compound 0.08 µM)	relative viability (AZ505 + Trametinib; first compound 0.253 µM)	relative viability (AZ505 + Trametinib; first compound 0.8 µM)	relative viability (AZ505 + Trametinib; first compound 2.53 µM)	relative viability (AZ505 + Trametinib; first compound 8 µM)
Calu-6	0.972	0.794	0.703	0.411	0.259	1.06	0.989	1.05	0.622	0.473	0.94	1.01	0.96	0.993	1.01	–	–	–	–	–
SW 1573	1.09	0.866	0.775	0.252	0.294	1.07	0.838	0.696	0.414	0.284	0.9	0.964	0.899	0.914	0.958	0.536	0.657	0.515	0.474	0.543
PC-3 [JPC-3]	0.796	0.787	0.879	0.742	0.509	1.11	1.03	1.03	0.898	0.664	0.956	0.978	0.974	0.926	1.07	0.596	–	0.694	0.704	0.693
NCI-H1299	1.06	1.1	1.08	0.986	1.03	1	1.05	1.02	0.769	0.885	0.981	0.968	0.969	0.948	1	–	–	–	–	–
LCLC-103H	–	–	–	–	–	1.03	0.95	0.964	0.785	0.624	0.989	0.903	0.925	1.02	0.896	0.714	0.625	0.604	0.669	0.69
ABC-1	–	–	–	–	–	0.954	0.921	0.868	0.719	0.458	0.899	0.963	0.975	0.985	1.05	–	–	–	–	–
NCI-H650	–	–	–	–	–	1.07	0.937	0.892	0.747	0.412	1.01	0.887	0.948	1.1	1.01	0.98	0.841	0.924	0.893	1.15
SW 900	–	–	–	–	–	0.913	0.769	0.714	0.329	0.346	0.857	0.856	0.818	0.963	0.97	0.554	0.846	0.682	0.72	0.813
NCI-H661	–	–	–	–	–	1.08	1.03	0.953	0.482	0.432	0.951	1.01	0.963	0.963	1	0.603	0.596	0.537	0.577	0.541
NCI-H1563	–	–	–	–	–	1	0.928	0.885	0.605	0.562	0.998	1.04	0.968	0.93	0.939	–	–	–	–	–
A549	1.29	1.05	0.706	0.248	0.104	0.995	0.871	0.729	0.225	0.182	0.864	0.985	0.93	0.968	1.04	–	–	–	–	–
NCI-H2342	–	–	–	–	–	0.997	0.999	0.862	0.843	0.591	1.03	1.08	1.17	1.07	1.08	0.668	0.789	1.01	0.752	1.01
NCI-H1623	–	–	–	–	–	1.14	0.968	0.918	0.531	0.402	0.894	1.03	0.984	0.937	1.04	–	–	–	–	–
NCI-H522	–	–	–	–	–	0.971	0.932	0.967	0.895	0.568	0.922	0.961	0.981	1.05	1	0.71	0.726	0.945	0.842	0.8
IA-LM	0.819	0.579	0.564	0.116	0.0832	1	0.837	0.701	0.273	0.129	0.931	0.914	0.898	0.953	1.13	–	–	–	–	–
NCI-H358	–	–	–	–	–	0.914	0.895	0.834	0.413	0.272	0.785	0.829	0.812	0.755	0.925	0.113	0.136	0.112	0.119	0.13
EBC-1	0.408	0.417	0.212	0.173	0.145	1.05	0.883	0.724	0.236	0.244	0.967	0.929	1.03	1.01	0.924	–	–	–	–	–
